# Measurements taken from patent publication US12503436B2, “Compounds and compositions for treating conditions associated with STING activity” (NOVARTIS PHARMA AG, priority 2021, dated 2025).
# Target: STING (Homo sapiens, UniProt Q86WV6, G230A/H232R/R293Q/R71H)
# Test: STING reporter assay in THP1-Dual KO-IFNAR2 cells (2′3′cGAMP stimulation, luciferase reporter)
# Type: cell-based
# Details: 15 μM 2′3′cGAMP stimulation, 24 h, read-out: Pharmaron, THP1_IFNAR2 STING 24 h Luci Normalized: GeoMean EC50
# Procedure, shortened: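 THP1-Dual KO-IFNAR2 cells (2×10E6 cells/mL) with compounds at 0.0017-100 μM final, stimulated with 15 μM final 2′3′cGAMP delivered by Lipofectamine 2000; 24 h at 37 °C. Luciferase in supernatant read with QUANTI-Luc Plus; EC50 derived from luminescence.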
# STING, sequence (Q86WV6 whole entry R71H/G230A/H232R/R293Q): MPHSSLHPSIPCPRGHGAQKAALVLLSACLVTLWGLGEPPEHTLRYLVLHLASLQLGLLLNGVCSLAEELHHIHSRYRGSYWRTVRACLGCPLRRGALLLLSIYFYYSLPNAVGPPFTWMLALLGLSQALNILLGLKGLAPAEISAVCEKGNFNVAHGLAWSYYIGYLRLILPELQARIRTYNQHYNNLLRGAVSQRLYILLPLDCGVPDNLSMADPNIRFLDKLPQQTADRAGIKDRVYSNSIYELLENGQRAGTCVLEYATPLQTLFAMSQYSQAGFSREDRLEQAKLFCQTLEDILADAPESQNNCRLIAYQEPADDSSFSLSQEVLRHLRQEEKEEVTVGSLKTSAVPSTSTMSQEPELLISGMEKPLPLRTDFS
row,EC50 [nM],Molecule
1,200 to 1000,"O=C(Nc1c[nH]c2ccc(OCCC3CCN(CC(F)(F)F)CC3)cc12)C1CCC1 [Compound 129, N-(5-(2-(1-(2,2,2-trifluoroethyl)piperidin-4-yl)ethoxy)-1H-indol-3-yl)cyclobutanecarboxamide]"
2,5000 to 100000,"CC(=O)Nc1c[nH]c2ccc(CCOc3cccnc3C(F)(F)F)cc12 [Compound 541, N-(5-(2-((2-(trifluoromethyl)pyridin-3-yl)oxy)ethyl)-1H-indol-3-yl)acetamide]"
3,40 to 200,"O=C(Nc1c[nH]c2ccc(OCCc3ccc(C(F)(F)F)cc3)cc12)C1CN(CC(F)F)C1 [Compound 149, 1-(2,2-difluoroethyl)-N-(5-(4-(trifluoromethyl)phenethoxy)-1H-indol-3-yl)azetidine-3-carboxamide]"
4,200 to 1000,"COCCCC(=O)Nc1c[nH]c2ccc(OCCC3CCN(CC(F)(F)F)CC3)cc12 [Compound 121, 4-methoxy-N-(5-(2-(1-(2,2,2-trifluoroethyl)piperidin-4-yl)ethoxy)-1H-indol-3-yl)butanamide]"
5,200 to 1000,"O=C(Nc1c[nH]c2ccc(CCOc3ccc(C(F)(F)F)nc3)cc12)C1CC1 [Compound 167, N-(5-(2-((6-(trifluoromethyl)pyridin-3-yl)oxy)ethyl)-1H-indol-3-yl)cyclopropanecarboxamide]"
6,5000 to 100000,"CC(=O)Nc1c[nH]c2ccc(CCOC3CN(CC(F)(F)F)C3)cc12 [Compound 377, N-(5-(2-((1-(2,2,2-trifluoroethyl)azetidin-3-yl)oxy)ethyl)-1H-indol-3-yl)acetamide]"
7,40 to 200,"CC(=O)Nc1c[nH]c2ccc(OCCC34CC(c5ccccc5)(C3)C4)cc12 [Compound 262, N-(5-(2-(3-phenylbicyclo[1.1.1]pentan-1-yl)ethoxy)-1H-indol-3-yl)acetamide]"
8,1000 to 5000,"COC(=O)C(Cc1ccc(C(F)(F)F)cc1)Cc1ccc2[nH]cc(NC(C)=O)c2c1 (centres unmarked) [Compound 527, methyl 3-(3-acetamido-1H-indol-5-yl)-2-(4-(trifluoromethyl)benzyl)propanoate]"
9,1000 to 5000,"CC1(C(=O)Nc2c[nH]c3ccc(OCCc4ccc(C(F)(F)F)cc4)cc23)CNC1 [Compound 569, 3-methyl-N-(5-(4-(trifluoromethyl)phenethoxy)-1H-indol-3-yl)azetidine-3-carboxamide]"
10,40 to 200,"O=C(Nc1c[nH]c2ccc(CCOc3ccc(C(F)(F)F)cc3)cc12)C1CC(CO)C1 (centres unmarked) [Compound 308, 3-(hydroxymethyl)-N-(5-(2-(4-(trifluoromethyl)phenoxy)ethyl)-1H-indol-3-yl)cyclobutane-1-carboxamide]"
11,200 to 1000,"O=C(Nc1c[nH]c2ccc(OCCc3ccc(C(F)(F)F)nc3)cc12)C1CN(CC(F)(F)F)C1 [Compound 195, 1-(2,2,2-trifluoroethyl)-N-(5-(2-(6-(trifluoromethyl)pyridin-3-yl)ethoxy)-1H-indol-3-yl)azetidine-3-carboxamide]"
12,1000 to 5000,"C[C@@H]1OC[C@H]1C(=O)Nc1c[nH]c2ccc(OCC[C@@H]3C[C@@H]4CN(CC(F)(F)F)C[C@@H]4C3)cc12 [Compound 509, (2S,3R)-2-methyl-N-(5-(2-((3aR,5r,6aS)-2-(2,2,2-trifluoroethyl)octahydrocyclopenta[c]pyrrol-5-yl)ethoxy)-1H-indol-3-yl)oxetane-3-carboxamide]"
13,40 to 200,"O=C(Nc1c[nH]c2ccc(CCOc3ccc(C(F)(F)F)cc3)cc12)C1CC(O)C1 (centres unmarked) [Compound 310, 3-hydroxy-N-(5-(2-(4-(trifluoromethyl)phenoxy)ethyl)-1H-indol-3-yl)cyclobutane-1-carboxamide]"
14,200 to 1000,"N#C[C@H]1C[C@@H]1C(=O)Nc1c[nH]c2ccc(OCCc3ccc(C(F)(F)F)cc3)cc12 [Compound 203, (1S,2S)-2-cyano-N-(5-(4-(trifluoromethyl)phenethoxy)-1H-indol-3-yl)cyclopropane-1-carboxamide]"
15,200 to 1000,"O=C(Nc1c[nH]c2ccc(OCc3ccc(C(F)(F)F)cc3)cc12)C1CC1(F)F (centres unmarked) [Compound 330, 2,2-difluoro-N-(5-((4-(trifluoromethyl)benzyl)oxy)-1H-indol-3-yl)cyclopropane-1-carboxamide]"
16,200 to 1000,"N#C[C@@H]1C[C@@H]1C(=O)Nc1c[nH]c2ccc(OCCc3ccc(C(F)(F)F)cc3)cc12 [Compound 188, (1S,2R)-2-cyano-N-(5-(4-(trifluoromethyl)phenethoxy)-1H-indol-3-yl)cyclopropane-1-carboxamide]"
17,1000 to 5000,"CC(=O)Nc1c[nH]c2c(C)cc(COCc3ccc(C(F)(F)F)cc3)cc12 [Compound 272, N-(7-methyl-5-(((4-(trifluoromethyl)benzyl)oxy)methyl)-1H-indol-3-yl)acetamide]"
18,5000 to 100000,"CC(=O)Nc1c[nH]c2ccc(OCC3Cc4cnn(CC(F)(F)F)c4C3)cc12 (centres unmarked) [Compound 444, N-(5-((1-(2,2,2-trifluoroethyl)-1,4,5,6-tetrahydrocyclopenta[c]pyrazol-5-yl)methoxy)-1H-indol-3-yl)acetamide]"
19,40 to 200,"C[C@H]1C[C@@H]1C(=O)Nc1c[nH]c2ccc(OCCc3ccc(C(F)(F)F)cc3)cc12 [Compound 206, (1S,2S)-2-methyl-N-(5-(4-(trifluoromethyl)phenethoxy)-1H-indol-3-yl)cyclopropane-1-carboxamide]"
20,1000 to 5000,"CC(=O)Nc1c[nH]c2ccc(CCOc3ccc4c(c3)N(Cc3ccccc3)C(=O)CS4)cc12 [Compound 386, N-(5-(2-((4-benzyl-3-oxo-3,4-dihydro-2H-benzo[b][1,4]thiazin-6-yl)oxy)ethyl)-1H-indol-3-yl)acetamide]"
21,200 to 1000,"3-hydroxy-N-(5-(2-((3aR,5r,6aS)-2-(2,2,2-trifluoroethyl)octahydrocyclopenta[c]pyrrol-5-yl)ethoxy)-1H-indol-3-yl)cyclobutane-1-carboxamide [Compound 347]"
22,40 to 200,"CC(=O)Nc1c[nH]c2ccc(OCCc3ccc(S(F)(F)(F)(F)F)cc3)cc12 [Compound 169, N-(5-(4-(pentafluoro-16-sulfaneyl)phenethoxy)-1H-indol-3-yl)acetamide]"
23,1000 to 5000,"CC(=O)Nc1c[nH]c2ccc(CCOc3cncc(C(F)(F)F)c3)cc12 [Compound 481, N-[5-(2-{[5-(trifluoromethyl)pyridin-3-yl]oxy}ethyl)-1H-indol-3-yl]acetamide]"
24,200 to 1000,"CO[C@H]1C[C@](C)(C(=O)Nc2c[nH]c3ccc(OCC[C@@H]4C[C@@H]5CN(CC(F)(F)F)C[C@@H]5C4)cc23)C1 [Compound 427, trans-3-methoxy-1-methyl-N-(5-(2-((3aR,5r,6aS)-2-(2,2,2-trifluoroethyl)octahydrocyclopenta[c]pyrrol-5-yl)ethoxy)-1H-indol-3-yl)cyclobutane-1-carboxamide]"
25,40 to 200,"C[C@]1(C(=O)Nc2c[nH]c3ccc(OCCc4ccc(C(F)(F)F)cc4)cc23)C[C@H](O)C1 [Compound 446, trans-3-hydroxy-1-methyl-N-(5-(4-(trifluoromethyl)phenethoxy)-1H-indol-3-yl)cyclobutane-1-carboxamide]"
26,40 to 200,"CC1(C)CC1C(=O)Nc1c[nH]c2ccc(OCCc3ccc(C(F)(F)F)cc3)cc12 (centres unmarked) [Compound 192, 2,2-dimethyl-N-(5-(4-(trifluoromethyl)phenethoxy)-1H-indol-3-yl)cyclopropane-1-carboxamide]"
27,5000 to 100000,"CC(=O)Nc1c[nH]c2ccc(CC3(c4ccc(C(F)(F)F)cc4)CCOC3)cc12 (centres unmarked) [Compound 507, N-(5-((3-(4-(trifluoromethyl)phenyl)tetrahydrofuran-3-yl)methyl)-1H-indol-3-yl)acetamide]"

row,Molecule,EC50 [nM]
1,"CC1(C(=O)Nc2c[nH]c3ccc(O[C@H]4C[C@@H](c5ccc(C(F)(F)F)cc5)C4)cc23)CCNCC1 [Compound 529, 4-methyl-N-(5-(cis-3-(4-(trifluoromethyl)phenyl)cyclobutoxy)-1H-indol-3-yl)piperidine-4-carboxamide]",5000 to 100000
2,"O=C(Nc1c[nH]c2ccc(O[C@H]3C[C@H](c4ccc(C(F)(F)F)cc4)C3)cc12)C1CC1(F)Cl (stereo partly drawn) [Compound 571, 2-chloro-2-fluoro-N-(5-(trans-3-(4-(trifluoromethyl)phenyl)cyclobutoxy)-1H-indol-3-yl)cyclopropane-1-carboxamide]",200 to 1000
3,"N#CC1CCC1C(=O)Nc1c[nH]c2ccc(O[C@H]3C[C@@H](c4ccc(C(F)(F)F)cc4)C3)cc12 (stereo partly drawn) [Compound 355, 2-cyano-N-(5-(cis-3-(4-(trifluoromethyl)phenyl)cyclobutoxy)-1H-indol-3-yl)cyclobutane-1-carboxamide]",200 to 1000
4,"CC(=O)Nc1c[nH]c2ccc(O[C@@H]3C[C@@H](c4ccc(C(F)(F)F)cc4)[C@@H]3C)cc12 [Compound 448, N-(5-((1R,2S,3R)-2-methyl-3-(4-(trifluoromethyl)phenyl)cyclobutoxy)-1H-indol-3-yl)acetamide]",40 to 200
5,"C[C@H]1OC[C@H]1C(=O)Nc1c[nH]c2ccc(O[C@H]3C[C@H](c4ccc(C(F)(F)F)cc4)C3)cc12 [Compound 424, (2R,3R)-2-methyl-N-(5-(trans-3-(4-(trifluoromethyl)phenyl)cyclobutoxy)-1H-indol-3-yl)oxetane-3-carboxamide]",200 to 1000
6,"O=C(Nc1c[nH]c2ccc(O[C@H]3C[C@@H](c4ccc(C(F)(F)F)cc4)C3)cc12)C1CN(CC(F)(F)F)C1 [Compound 243, 1-(2,2,2-trifluoroethyl)-N-(5-(cis-3-(4-(trifluoromethyl)phenyl)cyclobutoxy)-1H-indol-3-yl)azetidine-3-carboxamide]",40 to 200
7,"COC1CC(C(=O)Nc2c[nH]c3ccc(O[C@H]4C[C@@H](c5ccc(C(F)(F)F)cc5)C4)cc23)C1 (stereo partly drawn) [Compound 159, 3-methoxy-N-{5-[(1S,3S)-3-[4-(trifluoromethyl)phenyl]cyclobutoxy]-1H-indol-3-yl}cyclobutane-1-carboxamide]",40 to 200
8,"COCC(=O)Nc1c[nH]c2ccc(O[C@H]3C[C@H](c4ccc(C(F)(F)F)cc4)C3)cc12 [Compound 258, 2-methoxy-N-(5-(trans-3-(4-(trifluoromethyl)phenyl)cyclobutoxy)-1H-indol-3-yl)acetamide]",40 to 200
